Patent EP0503537B1, “6,9 Bis(substituted-amino)benzo-[g]isoquinoline-5,10-diones” (THE UNIVERSITY OF VERMONT, priority 1991, dated 1992)
Converted amounts (≈) assume the structure as drawn. “And” between values parts separate entries of the source, which are not always exact repeats. Equal entries are not always repeated.

Tests used:
[1] = test system: L1210 Murine leukemia cells; assay: In vitro growth inhibition of L1210 murine leukemia cells (Coulter Counter); assay type: cell-based; details: Mus musculus, 72 hours of continuous exposure
Protocol: The "in vitro" cytotoxic evaluation was also performed on L 1210 murine leukemia cells using the above mentioned cells maintained in suspension cultures (McCoy's 5A medium supplemented with 10% horse serum, glutamine, penicillin and streptomycin) grown in an humidified environment of 10% carbon dioxide and 90% air at 37°C. The compounds were dissolved in dimethylsulfoxide (DMSO) and added to the suspended cells in appropriate concentrations. After 72 hours of continuous exposure, the cell concentration was counted using a Coulter Counter and growth inhibition calculated using the formula: % growth inhibition = 1 - [cell number treated/cell number DMSO alone] x 100. [formula]
The IC50 was calculated from the growth inhibition data and they are reported in table VII in comparison to the prior art compound 5a (see table I for structure of 5a).
L1210 Murine leukemia cells were routinely maintained in suspension cultures in McCoy's 5A medium supplemented with 10% horse serum glutamine, penicillin and streptomycin and grown in a humidified environment of 10% carbon dioxide and 90% air at 37°C.
To assess the in vitro toxicity, each compound was dissolved in dimethylsulfoxide and added to 1 ml of L1210 cells (10^5 cells/tube) to attain final concentrations of 0.01, 0.1 and 1 µg of drug/ml of culture. After 72 hours of continues exposure to the drug, the cell concentration was determined with a Coulter Counter. Growth inhibition was calculated for each drug using the following formula: % growth inhibition = 1-[cell number treated/cell number DMSO alone] x 100. [formula]
The growth inhibition data was then used to calculate the IC50 value (the calculated drug concentration required to inhibit cell growth by 50% of control.

L1210 murine leukemia = assay: In vivo L1210 murine leukemia (ip/ip, d 1, 5, 9), protocol a, 10^6 cells; design: species or system BDF1 mice; details: days 1, 5 and 9, ip; for %T/C: mean survival time; for LTS: tumor-free at 60 days
Protocol: L 1210 leukemia cells were intraperitoneally (ip) injected in CDFl mice and treatment was initiated approximately 24 hours after tumor transplantation. Dosages of the drugs were administered ip according to preestablished protocols, usually at 4-day intervals. The studies were done over a 60-day period and the date of death for each animal was recorded. The % T/C was determined using the mean survival time (MST) for each group according to the formula % T/C = [(MST treated)/(MST control)] x 100 [formula]
• a) L1210 murine leukemia cells were maintained in vivo by weekly intraperitoneal (ip) injections of 10^6 cells in BDF1 mice. For test purposes, mice were inoculated i.p. with 10^6 L1210 cells and treatment was initiated 24 hours later. The desired dose of drug was administered on days 1, 5 and 9. Mice were observed daily for signs of toxicity and survival. The date of death was recorded for each animal that died or was sacrificed during the 60-day study. The mean survival time (MST) for each treatment group was calculated and the % T/C was determined using the following formula: % T/C = [(MST treated)/(MST control)] x 100 [formula] The results are reported in table X • b) L1210 murine leukemia cells were maintained in vivo by weekly intraperitoneal (ip) injections of 10^5 cells in DBA2 mice. For test purposes, CDF1 mice were inoculated i.p. with 10^5 L1210 cells and treatment was initiated 24 hours later. The desired dose of drug was administered on days 1, 5 and 9. Mice were observed daily for signs of toxicity and survival. The date of death was recorded for each animal that died or was sacrificed during the 60-day study. The median survival time (MST) for each treatment group was calculated and the % T/C was determined using the following formula: % T/C = [(MST treated)/(MST control)] x 100 [formula]

[2] = test system: murine Lewis Lung carcinoma; assay: In vivo murine Lewis Lung carcinoma (im/iv); design: species or system C57b1/6 female mice; details: LEWIS LUNG im/iv 1,8,15; for T/C %: median survival time; for TOX: toxic deaths/total number of mice; for TWI %: tumor Weight Inhibition 7 days after last treatment
Protocol: (§1) These tumor models are enclosed in the panel of eight transplanted tumors used by the U.S.-NCl as screen panel for selection of clinically useful antitumor agents (R.K.Y. Zee Cheng and C.C. Cheng, "Screening and evaluation of anticancer agents", Meth. and Find. Expl. Clin. Pharmacol., (1988), 10(2), 67-101).
C57b1/6 female mice were trasplantated im (intralimbs) with 10^5 cells. […] The mean tumor weight for each treatment group was calculated according to Geran, R.I. et al., Cancer Chemother. Rep., (1972), 3, 51-61 and the TWI% was calculated 7 days after the last drug treatment using the formula: TWI% = 100-[(Mean tumor weight of treated mice)/(mean tumor weight of controls)] x 100. [formula]

Lovo/DX = assay: MTT cytotoxicity assay on doxorubicin-resistant subline Lovo/DX; assay type: cell-based, human
Protocol: (§2) The evaluation of the "in vitro" cytotoxic activity of the compounds of the invention was performed using a human colon adenocarcinoma cell line (Lovo) isolated from a metastatic nodule and a subline with aquired resistance to a number of antitumor agents, among which doxorubicin, VP-16 and vincristine. […] The compounds were tested according to the MTT assay (Mosman, T., "Rapid Colorimetric assay for cellular growth and survival: application to proliferation and cytotoxicity assay", J. Immunol. Methods, (1983), 65, 55-63; Green, L.M., "Rapid colorimetric assay for cell viability; application to the quantitation of cytotoxic and growth inhibitory lymphokines", J. Immunol. Methods, (1984), 70, 257-268) in comparison with mitoxantrone, ametantrone and doxorubicin.
(§3) In vitro biological evaluation: MTT assay on human colon adenocarcinoma Lovo cells.
(§4) The MTT assay was performed according to Mosmann, T., J. Immunol. Methods, (1983), 65, 55-63 and Green, L. M., J. Immunol. Methods, (1984), 70, 257-268.
(§5) Immediately before use, compounds and reference standards are dissolved in proper solvent and subsequently further diluted in complete culture medium. Human colon adenocarcinoma cells Lovo and the subline resistant to doxorubicin (Lovo/DX) (2.5. 10^4 cells/ml) are plated in 96-well plates and preincubated for 24 hours in culture medium. After this time, the cells are exposed to drugs for 144 hours, then the thiazolyl blue tetrazolium bromide solution (MTT solution) is added and the cells are reincubated for 4 hours. The supernatant is removed and 150 µl of dimethylsulfoxide are added to solubilize formazan crystals. The plate is read at 570 nm with microplate reader and the inhibiting concentration of 50% cellular growth (IC50; µg/ml) is calculated.

[3] = test system: human colon adenocarcinoma cell line (Lovo); assay: MTT cytotoxicity assay on human colon adenocarcinoma Lovo cells; assay type: cell-based; details: 144 h, read-out: IC50 µg/ml±S.D. LoVo
Protocol: as §2, §3, §4, §5

P388 Murine Leukemia [4] = assay: In vivo P388 murine leukemia (iv/iv, d 1, 4, 7); details: for T/C% (range): median survival time; for TOX: toxic deaths/total number of mice; for LTS: tumor free at 60 days
Protocol: P388 Murine Leukemia cells were maintained in vivo by serial intraperitoneal (i.p.) injections of 10^6 cells in DBA2 mice. For test purposes, CDF1 mice were inoculated intravenously (i.v.) with 10^6 P388 cells and treatment was initiated 24 hr later. The i.v. dose of drug was administered on days 1, 4 and 7. Mice were observed daily for signs of toxicity and survival. The date of death was recorded for each animal that died or was sacrificed during the 60 day study. The median survival time (MST) for each treatment group was calculated and the % T/C was determined using the following formula: % T/C = [(MST treated)/(MST control)] x 100 [formula]

[5] = test system: human MX-1 mammary carcinoma; assay: In vivo human MX-1 mammary carcinoma xenograft (sc/iv); details: MX-1 sc/iv q 7d x 3; for TWI %: CD1 nu/nu female mice; for TOX: toxic deaths/total number of mice
Excerpt: as §1
CD1 nu/nu female mice were transplantated sc (subcutaneously) with tumor fragments (about 1 mm x 1 mm x 1 mm). Treatment was given iv once a week for three weeks, when tumor weight reached an average of 150 mg. For all individual tumors the weight change (relative tumor weight) for the start of treatment (Vo) was expressed as Vt/Vo at each day of measurement (Vt). TWI% was calculated 7 days after the last drug treatment using the formula: TWI% = 100-[(mean relative tumor weight of treated mice)/(mean relative tumor weight of controls)] x 100. [formula]

P388 Murine Leukemia [6] = assay: In vivo ascitic P388 murine leukemia (ip/ip, d 1, 5, 9); design: species or system CDF1 mice; details: for % T/C (range): median survival time; for TOX: toxic deaths/total No. of mice
Protocol: Treatment was initiated approximately 24 hours after tumor transplantation and dosages of the drug were administered ip (P388 ip/ip) or iv (P388 iv/iv) according to preestablished protocols, usually at 3-day (P388 iv/iv) or 4-day (P388 ip/ip) intervals. The studies were done over a 60-day period and the date of death for each animal was recorded. The % T/C was determined using the mean survival time (MST) for each group according to the formula % T/C = [(MST treated)/(MST control)] x 100 [formula]
P388 Murine Leukemia cells were maintained in vivo by serial intraperitoneal (ip) injections of 10^6 cells in DBA2 mice. For test purposes, CDF1 mice were inoculated i.p. with 10^6 P388 cells and treatment was initiated 24 hours later. The i.p dose of drug was administered on days 1, 5 and 9. Mice were observed daily for signs of toxicity and survival. The date of death was recorded for each animal that died or was sacrificed during the 60-day study. The median survival time (MST) for each treatment group was calculated and the % T/C was determined using the following formula: % T/C = [(MST treated)/(MST control)] x 100 [formula]

Compound: O=C1c2ccncc2C(=O)c2c(NCCN3CC3)ccc(NCCN3CC3)c21 [Compound 10f, 6,9-Bis{[2-(1'-aziridino)ethyl]amino}benzo[g]isoquinoline-5,10-dione]
- IC50 [1]: 0.002 µg/mL (≈ 5.3 nM)

Compound: O=C1c2ccncc2C(=O)c2c(NCCNCCO)ccc(NCCNCCO)c21 [Compound 10l.maleate, 6,9-bis{[2-(2-hydroxyethylamino)ethyl]amino}benzo[g]isoquinoline-5,10-dione]
- IC50 [1]: 0.06 µg/mL
- %T/C (L1210 murine leukemia; Dose 12.5 mg/kg): 313%
- LTS (L1210 murine leukemia; Dose 12.5 mg/kg): 2/6
- %T/C (L1210 murine leukemia; Dose 25 mg/kg): 415%
- LTS (L1210 murine leukemia; Dose 25 mg/kg): 1/6

Compound: NCCNc1ccc(NCCN)c2c1C(=O)c1ccncc1C2=O.O=C(O)/C=C\C(=O)O.O=C(O)/C=C\C(=O)O [Compound 10i.maleate, 6,9-bis{[2-(amino)ethyl]amino}benzo[g]isoquinoline-5,10-dione dimaleate]
- T/C % ([2]; 40 mg/Kg/day): 158%
- TOX ([2]; 40 mg/Kg/day): 0/10
- TWI % ([2]; 40 mg/Kg/day): 80%
- T/C % ([2]; 60 mg/Kg/day): 182%
- TOX ([2]; 60 mg/Kg/day): 1/10
- TWI % ([2]; 60 mg/Kg/day): 95%
- IC50 (Lovo/DX; Homo sapiens, LoVo/DX, MTT assay, 144 hrs drug exposure, read-out: IC50 µg/ml±S.D. LoVo/Dx): 6.7 ± 1.8 µg/mL
- R.I. (Lovo/DX; R.I. = (IC50 LoVo/Dx)/(IC50 LoVo)): 31.8
- IC50 [3]: 0.21 ± 0.08 µg/mL
- T/C% (range) (P388 Murine Leukemia [4]; 18 mg/kg/day iv days 1,4,7, dimaleate): 200% and 188%
- TOX (P388 Murine Leukemia [4]; 18 mg/kg/day iv days 1,4,7): 0/16
- LTS (P388 Murine Leukemia [4]; 18 mg/kg/day iv days 1,4,7): 0/16
- T/C% (range) (P388 Murine Leukemia [4]; 27 mg/kg/day iv days 1,4,7): 203(181-227) %
- TOX (P388 Murine Leukemia [4]; 27 mg/kg/day iv days 1,4,7): 2/32
- LTS (P388 Murine Leukemia [4]; 27 mg/kg/day iv days 1,4,7): 0/32
- TWI % ([5]; 17 mg/Kg/day): 65%
- TOX ([5]; 17 mg/Kg/day): 0/7
- TWI % ([5]; 26.6 mg/Kg/day): 58%
- TOX ([5]; 26.6 mg/Kg/day): 0/7
- TWI % ([5]; 40 mg/Kg/day): 64%
- TOX ([5]; 40 mg/Kg/day): 1/5
- LTS (day 60) (P388 Murine Leukemia [6]; 25 mg/kg/day ip days 1,5,9): 0/8
- % T/C (range) (P388 Murine Leukemia [6]; 25 mg/kg/day ip days 1,5,9): 185%
- TOX (P388 Murine Leukemia [6]; 25 mg/kg/day ip days 1,5,9): 0/8
- LTS (day 60) (P388 Murine Leukemia [6]; 37.5 mg/kg/day ip days 1,5,9): 1/8
- % T/C (range) (P388 Murine Leukemia [6]; 37.5 mg/kg/day ip days 1,5,9): 260%
- TOX (P388 Murine Leukemia [6]; 37.5 mg/kg/day ip days 1,5,9): 1/8
